Experimental data taken from patent publication US10993957B2 (NuCana plc, priority 2011, dated 2021).
Like-named read-outs stand apart in the source and are kept apart here.

How the values were obtained:
HeLa/TK^− = assay: Cytostatic assay, HeLa/TK^− cells; format: cell-based; conditions: for CC50: read-out: CC50 HeLa/TK^−; for IC50: read-out: IC50 HeLa/TK^−
Source text: (§1) The cell lines employed were L1210/0 (a leukemia cell line), FM3A/0 (a breast cancer cell line), Cem/0 (an acute lymphoblastic leukemia cell line) and HeLa (a cervical cell line).

Cem/0 = assay: Cytostatic assay, CEM/0 cells; format: cell-based, human; conditions: for CC50: read-out: CC50 Cem/0; for IC50: read-out: IC50 Cem/0
Source text: as §1

HeLa = assay: Cytostatic assay, HeLa cells; format: cell-based; conditions: for CC50: read-out: CC50 HeLa; for IC50: read-out: IC50 HeLa
Source text: as §1

L1210/TK^− = assay: Cytostatic assay, thymidine kinase-deficient L1210/TK^− cells; format: cell-based, murine
Cem/TK^− = assay: Cytostatic assay, thymidine kinase-deficient CEM/TK^− cells; format: cell-based, human; conditions: for CC50: read-out: CC50 Cem/TK^−; for IC50: read-out: IC50 Cem/TK^−
L1210/0 = assay: Cytostatic assay, L1210/0 cells; format: cell-based, murine
Source text: as §1

L1210.Hyor = assay: Cytostatic assay, Mycoplasma hyorhinis-infected L1210 cells; conditions: for % Retention: CC50 L1210 × 100 ÷ CC50 L1210/Hyor; for CC50: L1210, read-out: CC50 L1210/Hyor
Source text: Murine leukaemia L1210/0 and human T-lymphocyte CEM/0 cells were obtained from the American Type Culture Collection (ATCC) (Rockville, Md.). Human glioblastoma U87 cells were kindly provided by Dr. E. Menue (Institut Pasteur, Paris, France). […] S. Eriksson (currently at Uppsala University, Uppsala, Sweden) and Prof A. Karlsson (Karolinska Institute, Stockholm, Sweden). […] All cells were maintained in Dulbecco's modified Eagle's medium (DMEM) (Invitrogen, Carlsbad, Calif.) with 10% foetal bovine serum (FBS) (Biochrom AG, Berlin, Germany), 10 mM Hepes and 1 mM Sodium Pyruvate (Invitrogen). Cells were grown at 37° C. in a humidified incubator with a gas phase of 5% CO2.
Monolayer cells (U87 and U87.Hyor) were seeded in 48-well microtiter plates (Nunc™, Roskilde, Denmark) at 10,000 cells/well. After 24 hours, an equal volume of fresh medium containing the test compounds was added. On day 5, cells were trypsinized and counted in a Coulter counter (Analis, Suarlée, Belgium). Suspension cells (L1210/0, L1210/TK^−, L1210.Hyor, CEM/0, CEM/TK^−) were seeded in 96-well microtiter plates (Nunc™) at 60,000 cells/well in the presence of a given amount of the test compounds. The cells were allowed to proliferate for 48 h (L1210) or 72 hours (CEM) and were then counted in a Coulter counter.
Samples were also assayed for their % retention of activity in mycoplasma infected cells.
The L1210/0 cell cultures were infected with the mycoplasma species M. hyorhinis (cells designated: L1210.Hyor).

[1] = Homo sapiens, CCRF-CEM, Table 1
[2] = Homo sapiens, CCRF-CEM, Table 6
[3] = Mus musculus, L1210, Table 1, read-out: CC50 L1210/TK^−
[4] = Mus musculus, L1210, Table 6, read-out: IC50 L1210/TK^−
[5] = Homo sapiens, CEM-TK(-), Table 1
[6] = Homo sapiens, CEM-TK(-), Table 6
[7] = Mus musculus, L1210/0, Table 1, read-out: CC50 L1210/0
[8] = Mus musculus, L1210/0, Table 2, mycoplasma negative cells, read-out: CC50 L1210
[9] = Mus musculus, L1210/0, Table 6, read-out: IC50 L1210/0
[10] = Mus musculus, L1210/0, Table 7, read-out: IC50 L1210/0
[11] = Mus musculus, L1210, read-out: IC50 L1210.Hyor
[12] = Table 6, read-out: IC50 L1210/TK^−
[13] = Table 6, read-out: IC50 L1210/0
[14] = Table 7, read-out: IC50 L1210/0
[15] = read-out: IC50 L1210.Hyor, Table 7

SMILES	CC50 (HeLa/TK^−; Homo sapiens, HeLa, Table 1) [nM]	IC50 (HeLa/TK^−; Homo sapiens, HeLa, Table 6) [nM]	CC50 (Cem/0; [1]) [nM]	IC50 (Cem/0; [2]) [nM]	CC50 (HeLa; Homo sapiens, HeLa, Table 1) [nM]	IC50 (HeLa; Homo sapiens, HeLa, Table 6) [nM]	CC50 (L1210/TK^−; [3]) [nM]	IC50 (L1210/TK^−; [4]) [nM]	CC50 (Cem/TK^−; [5]) [nM]	IC50 (Cem/TK^−; [6]) [nM]	CC50 (L1210/0; [7]) [nM]	CC50 (L1210/0; [8]) [nM]	IC50 (L1210/0; [9]) [nM]	IC50 (L1210/0; [10]) [nM]	% Retention (L1210.Hyor) [%]	CC50 (L1210.Hyor; Mus musculus) [nM]	IC50 (L1210.Hyor; [11]) [nM]	IC50(L1210.Hyor)/IC50(L1210/0) (L1210.Hyor; Table 7)	other results
CCCCCOC(=O)[C@H](C)NP(=O)(OC[C@H]1O[C@@H](n2cc(F)c(=O)[nH]c2=O)CC1O)Oc1cccc2ccccc12 (stereo partly drawn) [CPF 581, 5-Fluoro-2′-deoxyuridine-5′-O-[1-naphthyl-(pentoxy-L-alaninyl)] phosphate]	440 ± 350	440 ± 350	15 ± 6	15 ± 6	29 ± 23	29 ± 23	130 ± 130	130 ± 130	280 ± 40	280 ± 40	2.8 ± 1	3.7	2.8 ± 1	2.1 ± 0.07	22	17	6 ± 1.4	2.9	–
C[C@H](NP(=O)(OC[C@H]1O[C@@H](n2cc(F)c(=O)[nH]c2=O)CC1O)Oc1cccc2ccccc12)C(=O)OC1CCCC1 (stereo partly drawn) [CPF 582, 5-Fluoro-2′-deoxyuridine-5′-O-[1-naphthyl-(cyclopentoxy-L-alaninyl)]phosphate]	2200 ± 1300	2200 ± 1300	35 ± 25	350 ± 25	71 ± 36	71 ± 36	130 ± 20	130 ± 20	920 ± 7	920 ± 7	31 ± 10	35	31 ± 10	16 ± 0.7	83	42	24 ± 5	1.5	–
O=C(OCc1ccccc1)C1CCCN1P(=O)(OC[C@H]1O[C@@H](n2cc(F)c(=O)[nH]c2=O)CC1O)Oc1ccccc1 (stereo partly drawn) [CPF 583, 5-Fluoro-2′-deoxyuridine-5′-O-[phenyl(benzoxy-L-prolinyl)] phosphate]	–	–	–	–	–	–	–	–	–	–	–	–	–	–	3.3	11900	18000 ± 710	51	CC50 (HeLa/TK^−; Homo sapiens, HeLa): 20000 ± 11000 nM; IC50 (HeLa/TK^−; Homo sapiens, HeLa): 20000 ± 11000 nM; CC50 (Cem/0; Homo sapiens, CCRF-CEM): 980 ± 400 nM; IC50 (Cem/0; Homo sapiens, CCRF-CEM): 980 ± 400 nM; CC50 (HeLa; Homo sapiens, HeLa): 1100 ± 400 nM; IC50 (HeLa; Homo sapiens, HeLa): 1100 ± 400 nM; CC50 (L1210/TK^−; Mus musculus, L1210, read-out: CC50 L1210/TK^−): 31000 ± 5000 nM; IC50 (L1210/TK^−; Mus musculus, L1210, read-out: IC50 L1210/TK^−): 31000 ± 5000 nM; CC50 (Cem/TK^−; Homo sapiens, CEM-TK(-)): 28000 ± 8000 nM; IC50 (Cem/TK^−; Homo sapiens, CEM-TK(-)): 28000 ± 8000 nM; CC50 (L1210/0; Mus musculus, L1210/0, read-out: CC50 L1210): 387 nM; CC50 (L1210/0; Mus musculus, L1210/0, read-out: CC50 L1210/0): 350 ± 70 nM; IC50 (L1210/0; Mus musculus, L1210/0, read-out: IC50 L1210/0, Table 6): 350 ± 70 nM; IC50 (L1210/0; Mus musculus, L1210/0, read-out: IC50 L1210/0, Table 7): 350 ± 22 nM
C[C@H](NP(=O)(OC[C@H]1O[C@@H](n2cc(F)c(=O)[nH]c2=O)CC1O)Oc1cccc2ccccc12)C(=O)OCCC(C)(C)C (stereo partly drawn) [CPF 585, 5-Fluoro-2′-deoxyuridine-5′-O-[1-naphthyl(3,3-dimethyl-1-butoxy-L-alaninyl)] phosphate]	1300 ± 900	1300 ± 900	53 ± 21	53 ± 21	78 ± 18	78 ± 18	62 ± 9	62 ± 9	190 ± 40	190 ± 40	16 ± 6	21	16 ± 6	12 ± 1.8	41	51	32 ± 8.8	2.7	–
CSCC[C@H](NP(=O)(OC[C@H]1O[C@@H](n2cc(F)c(=O)[nH]c2=O)CC1O)Oc1ccccc1)C(=O)OCc1ccccc1 (stereo partly drawn) [CPF 586, 5-Fluoro-2′-deoxyuridine-5′-O-[phenyl-(benzoxy-L-methioninyl)] phosphate]	11000 ± 7000	11000 ± 7000	280 ± 30	280 ± 30	150 ± 20	150 ± 20	4100 ± 1200	4100 ± 1200	25000	25000	73 ± 35	100	73 ± 35	58 ± 35	11	870	760 ± 180	13	–
O=C(OCc1ccccc1)[C@H](Cc1ccccc1)NP(=O)(OC[C@H]1O[C@@H](n2cc(F)c(=O)[nH]c2=O)CC1O)Oc1cccc2ccccc12 (stereo partly drawn) [CPF 587, 5-Fluoro-2′-deoxyuridine-5′-O-[1-naphthyl-(benzoxy-L-phenylalaninyl)]phosphate]	6800 ± 1500	6800 ± 1500	100 ± 30	100 ± 30	160 ± 80	160 ± 80	5600 ± 1300	5600 ± 1300	7200 ± 100	7200 ± 100	12 ± 7	22	12 ± 7	21 ± 6.1	0.5	4200	230 ± 78	11	–
C[C@H](NP(=O)(OC[C@H]1O[C@@H](n2cc(F)c(=O)[nH]c2=O)CC1O)Oc1cccc2ccccc12)C(=O)OCC(C)(C)C (stereo partly drawn) [CPF 588, 5-Fluoro-2′-deoxyuridine-5′-O-[1-naphthyl-(2,2-dimethylpropoxy-L-alaninyl)] phosphate]	32000 ± 26000	32000 ± 26000	490 ± 50	490 ± 50	700 ± 110	700 ± 110	1200 ± 700	1200 ± 700	6700 ± 1000	6700 ± 1000	270 ± 110	237	270 ± 110	93 ± 33	61	390	180 ± 69	1.9	–
CCCCOC(=O)[C@H](C)NP(=O)(OC[C@H]1O[C@@H](n2cc(F)c(=O)[nH]c2=O)CC1O)Oc1cccc2ccccc12 (stereo partly drawn) [CPF 589, 5-Fluoro-2′-deoxyuridine-5′-O-[1-naphthyl-(butoxy-L-alaninyl)] phosphate]	2700 ± 1500	2700 ± 1500	64 ± 7	64 ± 7	120 ± 20	120 ± 20	110 ± 60	110 ± 60	840 ± 600	840 ± 600	22 ± 4	20	22 ± 4	9.5 ± 2.1	32	63	21 ± 7.1	2.2	–
CC(C)CC(NP(=O)(OCC1OC(n2cc(F)c(=O)[nH]c2=O)CC1O)Oc1cccc2ccccc12)C(=O)OCc1ccccc1 (stereo not drawn) [Nap Bn Leu]	–	–	–	–	–	–	–	–	–	–	–	–	–	–	–	–	–	1.7	IC50 (HeLa/TK^−; Table 6): 9400 ± 1400 nM; IC50 (Cem/0; Table 6): 130 nM; IC50 (HeLa; Table 6): 80 ± 22 nM; IC50 (L1210/TK^−; [12]): 1500 ± 600 nM; IC50 (Cem/TK^−; Table 6): 30000 ± 6000 nM; IC50 (L1210/0; [13]): 28 ± 4 nM; IC50 (L1210/0; [14]): 29 ± 2.1 nM; IC50 (L1210.Hyor; [15]): 48 ± 20 nM
CSCCC(NP(=O)(OCC1OC(n2cc(F)c(=O)[nH]c2=O)CC1O)Oc1cccc2ccccc12)C(=O)OCc1ccccc1 (stereo not drawn) [Nap Bn Met]	–	–	–	–	–	–	–	–	–	–	–	–	–	–	–	–	–	3.7	IC50 (HeLa/TK^−; Table 6): 8300 nM; IC50 (Cem/0; Table 6): 190 ± 100 nM; IC50 (HeLa; Table 6): 87 ± 17 nM; IC50 (L1210/TK^−; [12]): 1900 ± 200 nM; IC50 (Cem/TK^−; Table 6): 11000 ± 1000 nM; IC50 (L1210/0; [13]): 72 ± 1 nM; IC50 (L1210/0; [14]): 54 ± 13 nM; IC50 (L1210.Hyor; [15]): 200 ± 98 nM
